Here are results for two compounds from patent US20250325536A1, “THERAPEUTIC USES OF GLP1R AGONISTS” (vTv Therapeutics LLC, priority 2018, published 2025).

Assay [1] relates to subjects (humans) with type 2 diabetes. Description: Phase 2 clinical study of API-1, 12 weeks of treatment, on stable metformin. It is filed as in vivo, human. The settings on record: for placebo-subtracted decrease from baseline in HbA1c (%): p<0.001. The protocol:
A Phase 2 clinical study was designed as a randomized, double-blind, placebo- controlled, parallel-group multi-center study evaluating the efficacy and safety following 12 weeks of treatment with API-1 in subjects (humans) with type 2 diabetes who were being treated with a stable dose of metformin. Subjects were randomly assigned to one of three treatment groups, API-1 150 mg BID, API-1 150 mg QPM, or placebo with approximately n=52/group. A total of approximately 156 patients were to be randomized into this study and 174 were ultimately randomized. Subjects were enrolled and randomized according to a fixed randomization scheme blocked by study investigative site. Severity of diabetes was determined by HbA1c measures (7.5% to 10%) at screening, confirmed at Baseline, and HbA1c was used as a stratification variable in the randomization scheme: HbA1c less than 8% and 8% or more. Randomization was to be a balanced allocation (1:1:1) among the three treatment groups. Dropouts were not to be replaced. Statistical analyses for topline results included placebo-subtracted change from baseline (LSM-CFB) for HbA1c (primary endpoint) and body weight (secondary endpoint) as well as a post hoc concentration/effect analysis to evaluate the effect of exposure on efficacy.

The test system of assay [2] is subjects (humans) with T2DM. Briefly: Phase 2 dose-ranging study of API-2, 12 weeks of treatment. It is filed as in vivo, human. The settings on record: Target population (Baseline 8-11%). The protocol: A Phase 2 study was designed as a randomized, double-blind, placebo controlled, dose-ranging, parallel group study evaluating the efficacy and safety following 12 weeks of treatment with API-2 in subjects (humans) with T2DM. The study was conducted in 2 parts: Part A and Part B. Part A and Part B were identical except for the dose levels administered. In Part A, subjects received one of two treatments administered orally for 12 weeks: API-2 400 mg QD (n=51) or matching placebo (n=26). In Part B, subjects received one of three treatments administered orally for 12 weeks: API-2 200 mg QD (n=28), API-2 800 mg QD (n=56), or matching placebo (n=26).

Setting [3] is: 150 mg once daily (QPM) arm, Week 12, completers, 2.2 mg/kg to 1.0 mg/kg.
The mark [4] stands for this setting: 150 mg twice daily (BID) arm, Week 12, completers, 2.2 mg/kg to 4.8 mg/kg.

Take `CC[C@@H](c1ccccc1)N1Cc2cc3c(cc2C[C@H]1C(=O)N[C@@H](Cc1ccc(-c2ccnc(C)c2C)cc1)C(=O)O)OC[C@H](c1ccc(OCc2ccc(Cl)c(Cl)c2)cc1)O3.Cl.Cl` [API-1, (S)-2-{[(3S,8S)-3-[4-(3,4-dichloro-benzyloxy)-phenyl]-7-((S)-1-phenyl-propyl)-2,3,6,7,8,9-hexahydro-[1,4]dioxino[2,3-g]isoquinoline-8-carbonyl]-amino}-3-[4-(2,3-dimethyl-pyridin-4-yl)-phenyl]-propionic acid hydrochloride (1:2)]: the “placebo-subtracted decrease from baseline in HbA1c (%)” value in assay [1] (150 mg once daily (QPM) arm, 12 weeks) is reported as 0.9±0.2%; in assay [1] (150 mg twice daily (BID) arm, 12 weeks) it was 0.7±0.2%. The “dose (mg/kg) response of change from baseline in FPG (FIG. 3)” value in assay [1] (setting [3]) is recorded as “increased as the dose was reduced”. The “dose (mg/kg) response of change from baseline in HbA1c (FIG. 1)” value in assay [1] (setting [3]) was “increased as the dose was reduced”. The “weight loss (average)” value in assay [1] (150 mg once daily arm, 12 weeks, p=0.08) is reported as 0.9 kg; in assay [1] (150 mg twice daily arm, 12 weeks), 0.6 kg. Also, the “dose (mg/kg) response of change from baseline in FPG (FIG. 4)” value in assay [1] (setting [4]) is “almost unchanged”. Besides, the “dose (mg/kg) response of change from baseline in HbA1c (FIG. 2)” value in assay [1] (setting [4]) was “almost unchanged”. The “Mean Change from Baseline HbA1c (%)” value in assay [1] (group 1-1.35 mg/kg (<1.35), Week 4) was −0.57%; in assay [1] (group 1-1.35 mg/kg (<1.35), Week 8), −1.26%; in assay [1] (group 1-1.35 mg/kg (<1.35), Week 12) it was −1.71%; in assay [1] (group 1.35-1.64 mg/kg, Week 4), −0.35%; in assay [1] (group 1.35-1.64 mg/kg, Week 8) it was −0.85%; in assay [1] (group 1.35-1.64 mg/kg, Week 12) it was −0.90%. Besides, the “Mean Change from Baseline HbA1c (%)” value in assay [1] (group 1.65-1.75 mg/kg, Week 4) was −0.21%; in assay [1] (group 1.65-1.75 mg/kg, Week 8), −0.51%; in assay [1] (group 1.65-1.75 mg/kg, Week 12), −0.75%; in assay [1] (group 1.76-2.2 mg/kg (>1.75), Week 4), −0.31%; in assay [1] (group 1.76-2.2 mg/kg (>1.75), Week 8), −0.43%; in assay [1] (group 1.76-2.2 mg/kg (>1.75), Week 12) it was −0.55%. Moreover, the “placebo-subtracted decrease from baseline in fasting plasma glucose” value in assay [1] (once daily arm, 12 weeks) was “about 16 mg/dL”; in assay [1] (twice daily arm, 12 weeks) it was approximately 17 mg/dL. For the same compound, the “reduction from baseline in HbA1c” value in assay [1] (patients dosed with lower than 1.35 mg/kg, 12 weeks, p<0.01) turned out to be 1.7%. The “reduction from baseline in body weight” value in assay [1] (patients dosed with lower than 1.35 mg/kg, 12 weeks, p<0.05) came to 3.7 kg.
For `CC[C@@H](c1ccccc1)N1Cc2cc3c(cc2C[C@H]1C(=O)N[C@@H](Cc1ccc(-c2ccc(C#N)cc2)cc1)C(=O)O)N(C)C(=O)[C@@H](c1ccc(OCc2ccc(Cl)c(Cl)c2)cc1)O3` [API-2, (S)-3-(4′-cyano-biphenyl-4-yl)-2-{[(3R,7S)-3-[4-(3,4-dichlorobenzyloxy)-phenyl]-1-methyl-2-oxo-6-((S)-1-phenyl-propyl)-2,3,5,6,7,8-hexahydro-1H-4-oxa-1,6-diaza-anthracene-7-carbonyl]-amino}-propionic acid], the “Mean Change from Baseline in HbA1c (%)” value in assay [2] (group 1.4-2.7 mg/kg (<2.7), Week 4) is −0.37%; in assay [2] (group 1.4-2.7 mg/kg (<2.7), Week 8), −0.69%; in assay [2] (group 1.4-2.7 mg/kg (<2.7), Week 12) it was −0.79%; in assay [2] (group 2.8-4.0 mg/kg, Week 4), −0.47%; in assay [2] (group 2.8-4.0 mg/kg, Week 8), −0.86%; in assay [2] (group 2.8-4.0 mg/kg, Week 12), −1.09%. For the same compound, the “Mean Change from Baseline in HbA1c (%)” value in assay [2] (group 4.1-5.0 mg/kg, Week 4) is recorded as −0.36%; in assay [2] (group 4.1-5.0 mg/kg, Week 8), −0.78%; in assay [2] (group 4.1-5.0 mg/kg, Week 12), −0.85%; in assay [2] (group 5.1-12.4 mg/kg (>5.0), Week 4), −0.26%; in assay [2] (group 5.1-12.4 mg/kg (>5.0), Week 8) it was −0.34%; in assay [2] (group 5.1-12.4 mg/kg (>5.0), Week 12) it was −0.34%.
